The test concerns O=NOO- derived from the reaction of NO· with O2·-. Description: Formation of peroxynitrite from reaction of NO radical with superoxide. To be noted: in vitro and in vivo condition. The source says: Ascorbate is a typical scavenger of O2·^− and thus could inhibit the production of O═NOO^−. […] Based on this discovery, an administration of a great amount of arginine combined with ascorbic acid in an amount 1/5 times and more, for example from 1/5 to 20 times, especially from 1.5 to 20 times the amount of the arginine can be expected to prevent peroxidative injuries of cells caused by the ion, O═NOO^−. Therefore, the present invention also includes the following embodiments.

1 compound from US7214709B2, “Arginine/ascorbic acid mixed powder as an oral supplement” (priority 2000, dated 2007) can be followed below.

As to `O=C1O[C@H]([C@@H](O)CO)C(O)=C1O` [ascorbic acid, L-ascorbic acid], the “Formation of O=NOO- (peroxynitrite)” value is on record as “retards formation”.
